The text below walks through data of patent US9278922B2 (ABBVIE INC., priority 2009, dated 2016).

In the test the test system is HCV 1b-Con-1 replicon. As to the kind of experiment: HCV 1b-Con-1 replicon assay (luciferase reporter gene, HuH-7 cells). In kind it is cell-based, Hepatitis C virus (HCV) genotype 1b-Con1. The conditions noted are these: Hepatitis C virus, Huh-7, luciferase reporter gene activity in the replicon, in the presence of 5% FBS.
As usually defined, the EC50 is the midpoint of the concentration-response curve. `CC[C@H](NC(=O)OC)C(=O)N1CCC[C@H]1C(=O)Nc1ccc(CN(Cc2ccc(NC(=O)[C@@H]3CCCN3C(=O)[C@H](NC(=O)OC)c3ccccc3)cc2)c2ccccc2)cc1` [Example 71, methyl {(1R)-2-[(2S)-2-{[4-({[4-({[(2S)-1-{(2S)-2-[(methoxycarbonyl)amino]butanoyl}pyrrolidin-2-yl]carbonyl}amino)benzyl](phenyl)amino}methyl)phenyl]carbamoyl}pyrrolidin-1-yl]-2-oxo-1-phenylethyl}carbamate]: the EC50 was < 1 nM.
For `COCCN(Cc1ccc(NC(=O)[C@@H]2CCCN2C(=O)[C@@H](NC(=O)OC)C(C)(C)C)cc1)Cc1ccc(NC(=O)[C@@H]2CCCN2C(=O)[C@@H](NC(=O)OC)C(C)(C)C)cc1` [Example 32, dimethyl ([(2-methoxyethyl)imino]bis{methanediylbenzene-4,1-diylcarbamoyl(2S)pyrrolidine-2,1-diyl[(2S)-3,3-dimethyl-1-oxobutane-1,2-diyl]})biscarbamate], the EC50 fell in the range of 100 to 250 nM.
For the molecule `CCN(CC)[C@@H](C(=O)N1CCC[C@H]1C(=O)Nc1ccc(CN(Cc2ccc(NC(=O)[C@@H]3CCCN3C(=O)[C@@H](c3ccccc3)N3CCCC3)cc2)c2ccc(F)cc2)cc1)c1ccccc1` [Example 83, (2S)-1-[(2R)-2-(diethylamino)-2-phenylacetyl]-N-(4-{[(4-fluorophenyl){4-[({(2S)-1-[(2R)-2-phenyl-2-pyrrolidin-1-ylacetyl]pyrrolidin-2-yl}carbonyl)amino]benzyl}amino]methyl}phenyl)pyrrolidine-2-carboxamide], the EC50 was < 1 nM.
In the case of `C=CC[C@H](NC(=O)OC)C(=O)N1CCC[C@H]1C(=O)Nc1ccc(CN(Cc2ccc(NC(=O)[C@@H]3CCCN3C(=O)[C@H](CC=C)NC(=O)OC)cc2)c2ccccc2)cc1` [Example 37, dimethyl [(phenylimino)bis{methanediylbenzene-4,1-diylcarbamoyl(2S)pyrrolidine-2,1-diyl[(4S)-5-oxopent-1-ene-5,4-diyl]}]biscarbamate], the EC50 lay within 1 to 10 nM.
In the case of `O=C(Nc1ccc(CN(Cc2ccc(NC(=O)[C@@H]3CCCN3C(=O)[C@@H](c3ccccc3)N3CCCC3)cc2)c2ccc(F)cc2)cc1)[C@@H]1CCCN1C(=O)[C@@H](c1ccccc1)N1CCCC1` [Example 85, (2S,2′S)-N,N′-{[(4-fluorophenyl)imino]bis(methanediylbenzene-4,1-diyl)}bis{1-[(2R)-2-phenyl-2-pyrrolidin-1-ylacetyl]pyrrolidine-2-carboxamide}] it was < 1 nM; in that of `O=C(Nc1ccc(CN(Cc2ccc(NC(=O)[C@@H]3CCCN3C(=O)C(c3ccccc3)C3CCCC3)cc2)c2ccc(F)cc2)cc1)[C@@H]1CCCN1C(=O)C(c1ccccc1)C1CCCC1` (stereo partly drawn) [Example 107, (2S,2′S)-N,N′-{[(4-fluorophenyl)imino]bis(methanediylbenzene-4,1-diyl)}bis{1-[cyclopentyl(phenyl)acetyl]pyrrolidine-2-carboxamide}], 10 to 100 nM.
Turning to `COC(=O)N[C@H](C(=O)N1C[C@@H]2C[C@@H]2[C@H]1C(=O)Nc1ccc(CN(Cc2ccc(NC(=O)[C@@H]3[C@H]4C[C@H]4CN3C(=O)[C@@H](NC(=O)OC)C(C)(C)C)cc2)c2ccc(F)cc2)cc1)C(C)(C)C` [Example 109, methyl [(1S)-1-{[(1S,2S,5R)-2-{[4-({(4-fluorophenyl)[4-({[(1S,2S,5R)-3-{(2S)-2-[(methoxycarbonyl)amino]-3,3-dimethylbutanoyl}-3-azabicyclo[3.1.0]hex-2-yl]carbonyl}amino)benzyl]amino}methyl)phenyl]carbamoyl}-3-azabicyclo[3.1.0]hex-3-yl]carbonyl}-2,2-dimethylpropyl]carbamate], the half-maximal effective concentration (EC50) fell in the range of 10 to 100 nM.
Consider `O=C(Nc1ccc(CN(Cc2ccc(NC(=O)[C@@H]3C[C@@H](F)CN3C(=O)[C@@H](c3ccccc3)N3CCCCC3)cc2)c2ccc(F)cc2)cc1)[C@@H]1C[C@@H](F)CN1C(=O)[C@@H](c1ccccc1)N1CCCCC1` [Example 102, (2S,4R,2′S,4′R)-N,N′-{[(4-fluorophenyl)imino]bis(methanediylbenzene-4,1-diyl)}bis{4-fluoro-1-[(2R)-2-phenyl-2-piperidin-1-ylacetyl]pyrrolidine-2-carboxamide}], for which the EC50 was < 1 nM.
`COC(=O)N[C@H](C(=O)N1CCC[C@H]1C(=O)Nc1ccc(CN(Cc2ccc(NC(=O)[C@@H]3CCCN3C(=O)[C@@H](NC(=O)OC)C(C)(C)C)cc2)c2ccccc2)cc1)[C@H]1CCOC1` [Example 53, N-(methoxycarbonyl)-3-methyl-L-valyl-N-(4-{[{4-[(1-{(2S)-2-[(methoxycarbonyl)amino]-2-[(3R)-tetrahydrofuran-3-yl]acetyl}-L-prolyl)amino]benzyl}(phenyl)amino]methyl}phenyl)-L-prolinamide]: the 50% effective concentration (EC50) is < 1 nM.
For the molecule `O=C(Nc1ccc(CN(Cc2ccc(NC(=O)[C@@H]3CCCN3C(=O)O[C@H]3CCOC3)cc2)c2ccccc2)cc1)[C@@H]1CCCN1C(=O)O[C@H]1CCOC1` [Example 150, di[(3S)-tetrahydrofuran-3-yl](2S,2′S)-2,2′-[(phenylimino)bis(methanediylbenzene-4,1-diylcarbamoyl)]dipyrrolidine-1-carboxylate], the EC50 was 10 to 100 nM.
For `CC(=O)N[C@@H](C(=O)N1CCC[C@H]1C(=O)Nc1ccc(CN(Cc2ccc(NC(=O)[C@@H]3CCCN3C(=O)[C@H](NC(C)=O)c3ccccc3)cc2)c2ccccc2)cc1)c1ccccc1` [Example 43, (2S,2′S)-N,N′-[(phenylimino)bis(methanediylbenzene-4,1-diyl)]bis{1-[(2R)-2-(acetylamino)-2-phenylacetyl]pyrrolidine-2-carboxamide}] the value was < 1 nM; for `COC(=O)N[C@@H](CO)C(=O)N1CCC[C@H]1C(=O)Nc1ccc(CN(Cc2ccc(NC(=O)[C@@H]3CCCN3C(=O)[C@H](CO)NC(=O)OC)cc2)c2ccccc2)cc1` [Example 26, dimethyl[(phenylimino)bis{methanediylbenzene-4,1-diylcarbamoyl(2S)pyrrolidine-2,1-diyl[(2S)-3-hydroxy-1-oxopropane-1,2-diyl]}]biscarbamate], 10 to 100 nM.
On to `CCN(CC)[C@@H](C(=O)N1CCC[C@H]1C(=O)Nc1ccc(CN(Cc2ccc(NC(=O)[C@@H]3CCCN3C(=O)[C@@H](c3ccccc3)N(CC)CC)cc2)c2ccccc2)cc1)c1ccccc1` [Example 21, (R,2S,2′S)-N,N′-(4,4′-(phenylazanediyl)bis(methylene)bis(4,1-phenylene))bis(1-((R)-2-(diethylamino)-2-phenylacetyl)pyrrolidine-2-carboxamide)], for which the EC50 is < 1 nM.
As to `CCN(CC)[C@@H](C(=O)N1CCC[C@H]1C(=O)Nc1ccc(CN(Cc2ccc(NC(=O)[C@@H]3CCCN3C(=O)[C@@H](NC(=O)OC)[C@H]3CCOC3)cc2)c2ccc(F)cc2)cc1)c1ccccc1` [Example 81, methyl {(1S)-2-{(2S)-2-[(4-{[{4-[({(2S)-1-[(2R)-2-(diethylamino)-2-phenylacetyl]pyrrolidin-2-yl}carbonyl)amino]benzy}(4-fluorophenyl)amino]methyl}phenyl)carbamoyl]pyrrolidin-1-yl}-2-oxo-1-[(3R)-tetrahydrofuran-3-yl]ethyl}carbamate], the half-maximal effective concentration (EC50) was < 1 nM.
For the molecule `COC(=O)N[C@H](C(=O)N1CC[C@H](C)[C@H]1C(=O)Nc1ccc(CN(Cc2ccc(NC(=O)[C@@H]3[C@@H](C)CCN3C(=O)[C@@H](NC(=O)OC)C(C)(C)C)cc2)c2ccc(F)cc2)cc1)C(C)(C)C` [Example 145], the EC50 was < 1 nM.
